Laboratory results from paper PMC4303209, “A novel phosphatidylinositol 3-kinase (PI3K) inhibitor directs a potent FOXO-dependent, p53-independent cell cycle arrest phenotype characterized by the differential induction of a subset of FOXO-regulated genes” (Breast Cancer Research : BCR, 2014).

Tested on: MCF-7 breast cancer cells
Experiment: Microarray gene expression analysis (Agilent whole human genome 4 x 44K; compound vs DMSO, LIMMA log2 fold change)
Format: cell-based
Details: Apoptosis genes

In the case of `Oc1cccc(-c2nc(N3CCOCC3)c3oc4ncccc4c3n2)c1` [PI-103], the “TBX1 log2FC” value (Gene 6899) is reported as 0.079, the “TBX5 log2FC” value (Gene 6910) is reported as 0.103 and the “TBX3 log2FC” value (Gene 6926) is reported as -0.691. For the same compound, the “TCF7L2 log2FC” value (Gene 6934) was 0.036, the “TDGF1 log2FC” value (Gene 6997) was 0.005 and the “PRDX2 log2FC” value (Gene 7001) was 0.385. The “TERF1 log2FC” value (Gene 7013) was 0.376, the “TERT log2FC” value (Gene 7015) was -0.048 and the “TFAP2A log2FC” value (Gene 7020) was -0.507. The “TFAP2B log2FC” value (Gene 7021) was -0.150, the “TFAP4 log2FC” value (Gene 7023) was 0.386 and the “TGFA log2FC” value (Gene 7039) was -0.533. For the same compound, the “TGFB1 log2FC” value (Gene 7040) was -0.436, the “TGFB3 log2FC” value (Gene 7043) was 0.355 and the “TGFBR1 log2FC” value (Gene 7046) was 0.121. For the same compound, the “TGFBR2 log2FC” value (Gene 7048) was 0.950, the “TGM2 log2FC” value (Gene 7052) was -0.690 and the “THBS1 log2FC” value (Gene 7057) was -0.908. For the same compound, the “THRA log2FC” value (Gene 7067) was 0.660, the “TIA1 log2FC” value (Gene 7072) was 0.065 and the “TIAL1 log2FC” value (Gene 7073) was 0.160. The “TIAM1 log2FC” value (Gene 7074) was -0.173, the “TIMP1 log2FC” value (Gene 7076) was -0.137 and the “TJP1 log2FC” value (Gene 7082) was 0.317. The “TLE1 log2FC” value (Gene 7088) was 0.501, the “TLR2 log2FC” value (Gene 7097) was -0.157 and the “TLR3 log2FC” value (Gene 7098) was 0.801. For the same compound, the “NR2E1 log2FC” value (Gene 7101) was -0.112, the “TMF1 log2FC” value (Gene 7110) was 0.594 and the “TNF log2FC” value (Gene 7124) was -1.866. The “TNFAIP1 log2FC” value (Gene 7126) was -0.271, the “TNFAIP3 log2FC” value (Gene 7128) was -0.853 and the “TNFRSF1A log2FC” value (Gene 7132) was -0.921. For the same compound, the “TOP2A log2FC” value (Gene 7153) was 0.914, the “TP53 log2FC” value (Gene 7157) was 0.057 and the “TP53BP2 log2FC” value (Gene 7159) was 0.347. The “TP73 log2FC” value (Gene 7161) was -0.255, the “TPD52L1 log2FC” value (Gene 7164) was 0.154 and the “TPT1 log2FC” value (Gene 7178) was 0.376. The “HSP90B1 log2FC” value (Gene 7184) was 0.295, the “TRAF1 log2FC” value (Gene 7185) was -0.626 and the “TRAF3 log2FC” value (Gene 7187) was -0.946. The “TRAF5 log2FC” value (Gene 7188) was 0.350, the “TRAF6 log2FC” value (Gene 7189) was -0.154 and the “TRIO log2FC” value (Gene 7204) was 0.335. The “TRPS1 log2FC” value (Gene 7227) was 0.634, the “PHLDA2 log2FC” value (Gene 7262) was -3.120 and the “TWIST1 log2FC” value (Gene 7291) was 0.425. The “TNFRSF4 log2FC” value (Gene 7293) was 0.091, the “TYRO3 log2FC” value (Gene 7301) was 0.021 and the “UBA52 log2FC” value (Gene 7311) was 0.306. The “UBB log2FC” value (Gene 7314) was 0.036, the “UBC log2FC” value (Gene 7316) was 0.333 and the “UBE2B log2FC” value (Gene 7320) was 0.652. For the same compound, the “UBE2D3 log2FC” value (Gene 7323) was -0.368, the “UCN log2FC” value (Gene 7349) was 0.293 and the “UCP2 log2FC” value (Gene 7351) was 0.166. The “UNG log2FC” value (Gene 7374) was -0.352, the “VAV1 log2FC” value (Gene 7409) was 0.641 and the “VAV2 log2FC” value (Gene 7410) was 0.038. For the same compound, the “VCP log2FC” value (Gene 7415) was -0.262, the “VDAC1 log2FC” value (Gene 7416) was -0.421 and the “VDR log2FC” value (Gene 7421) was -1.024. For the same compound, the “VEGFB log2FC” value (Gene 7423) was 0.125, the “VHL log2FC” value (Gene 7428) was -0.079 and the “WFS1 log2FC” value (Gene 7466) was -0.599. The “WNT5A log2FC” value (Gene 7474) was 0.134, the “WNT7A log2FC” value (Gene 7476) was -0.086 and the “WNT7B log2FC” value (Gene 7477) was -0.378. For the same compound, the “WNT10B log2FC” value (Gene 7480) was -0.488, the “WNT11 log2FC” value (Gene 7481) was -0.088 and the “WNT9A log2FC” value (Gene 7483) was 0.041. For the same compound, the “WRN log2FC” value (Gene 7486) was 0.379, the “WT1 log2FC” value (Gene 7490) was -0.652 and the “XDH log2FC” value (Gene 7498) was 0.004. The “XPA log2FC” value (Gene 7507) was 0.468, the “XRCC2 log2FC” value (Gene 7516) was -0.599 and the “XRCC4 log2FC” value (Gene 7518) was 0.561. The “YWHAB log2FC” value (Gene 7529) was 0.178, the “YWHAE log2FC” value (Gene 7531) was 0.050 and the “YWHAG log2FC” value (Gene 7532) was -0.883. The “YWHAH log2FC” value (Gene 7533) was -0.481, the “YWHAZ log2FC” value (Gene 7534) was -0.301 and the “ZNF16 log2FC” value (Gene 7564) was 0.344. The “PCGF2 log2FC” value (Gene 7703) was -0.113, the “DAP3 log2FC” value (Gene 7818) was 0.276 and the “BTG2 log2FC” value (Gene 7832) was -1.051. For the same compound, the “PAX8 log2FC” value (Gene 7849) was 0.485, the “FZD5 log2FC” value (Gene 7855) was -0.196 and the “SCG2 log2FC” value (Gene 7857) was 0.168. The “NR4A3 log2FC” value (Gene 8013) was 0.337, the “LHX3 log2FC” value (Gene 8022) was 0.039 and the “RASSF7 log2FC” value (Gene 8045) was 0.194. The “FOSL1 log2FC” value (Gene 8061) was -2.531, the “CUL5 log2FC” value (Gene 8065) was -0.235 and the “FXR1 log2FC” value (Gene 8087) was 0.653. The “HMGA2 log2FC” value (Gene 8091) was -1.508, the “GDF5 log2FC” value (Gene 8200) was -0.438 and the “RBM10 log2FC” value (Gene 8241) was -0.115. The “AXIN1 log2FC” value (Gene 8312) was 0.422, the “NME5 log2FC” value (Gene 8382) was 0.271 and the “PLA2G6 log2FC” value (Gene 8398) was -0.123. The “SRPX log2FC” value (Gene 8406) was 0.201, the “STK24 log2FC” value (Gene 8428) was -0.049 and the “NSMAF log2FC” value (Gene 8439) was 0.165. For the same compound, the “DYRK2 log2FC” value (Gene 8445) was -0.467, the “CUL4A log2FC” value (Gene 8451) was 0.376 and the “CUL3 log2FC” value (Gene 8452) was 0.00335. The “CUL2 log2FC” value (Gene 8453) was 0.251, the “CUL1 log2FC” value (Gene 8454) was 0.207 and the “KLF11 log2FC” value (Gene 8462) was 1.202. For the same compound, the “OGT log2FC” value (Gene 8473) was 0.352, the “IKBKG log2FC” value (Gene 8517) was -0.216 and the “CBX4 log2FC” value (Gene 8535) was -0.090. For the same compound, the “API5 log2FC” value (Gene 8539) was -0.497, the “YARS log2FC” value (Gene 8565) was -0.500 and the “MADD log2FC” value (Gene 8567) was 0.749. For the same compound, the “UNC5C log2FC” value (Gene 8633) was 0.011, the “AKR1C3 log2FC” value (Gene 8644) was 0.528 and the “NCOA1 log2FC” value (Gene 8648) was 0.476. The “DYNLL1 log2FC” value (Gene 8655) was -1.055, the “IRS2 log2FC” value (Gene 8660) was 0.876 and the “BECN1 log2FC” value (Gene 8678) was 0.354. The “PEA15 log2FC” value (Gene 8682) was 0.569, the “HYAL2 log2FC” value (Gene 8692) was -0.333 and the “TRADD log2FC” value (Gene 8717) was 0.506. For the same compound, the “TNFRSF25 log2FC” value (Gene 8718) was -0.549, the “RIPK1 log2FC” value (Gene 8737) was -0.336 and the “CRADD log2FC” value (Gene 8738) was -0.080. For the same compound, the “HRK log2FC” value (Gene 8739) was 0.399, the “RIPK2 log2FC” value (Gene 8767) was 0.379 and the “TNFRSF6B log2FC” value (Gene 8771) was -1.304. The “FADD log2FC” value (Gene 8772) was -0.617, the “TNFRSF18 log2FC” value (Gene 8784) was -0.038 and the “TNFRSF10D log2FC” value (Gene 8793) was -0.508. The “TNFRSF10B log2FC” value (Gene 8795) was -0.908, the “TNFRSF10A log2FC” value (Gene 8797) was -0.907 and the “TRIM24 log2FC” value (Gene 8805) was 0.826. For the same compound, the “NRP1 log2FC” value (Gene 8829) was -0.252, the “SYNGAP1 log2FC” value (Gene 8831) was -0.399 and the “SOCS2 log2FC” value (Gene 8835) was 0.381. For the same compound, the “CFLAR log2FC” value (Gene 8837) was -0.542, the “HDAC3 log2FC” value (Gene 8841) was -0.248 and the “ALKBH1 log2FC” value (Gene 8846) was -0.111. The “TSC22D1 log2FC” value (Gene 8848) was 0.388, the “CDK5R1 log2FC” value (Gene 8851) was -0.328 and the “ALDH1A2 log2FC” value (Gene 8854) was 0.042. For the same compound, the “IER3 log2FC” value (Gene 8870) was -2.265, the “ARHGEF7 log2FC” value (Gene 8874) was 0.044 and the “SPHK1 log2FC” value (Gene 8877) was -0.416. For the same compound, the “SQSTM1 log2FC” value (Gene 8878) was 0.782, the “SGPL1 log2FC” value (Gene 8879) was -0.0047 and the “TAX1BP1 log2FC” value (Gene 8887) was 1.267. The “BCL10 log2FC” value (Gene 8915) was 0.116, the “MBD4 log2FC” value (Gene 8930) was 0.294 and the “NOL3 log2FC” value (Gene 8996) was 0.486.
